Experimental data from patent US11066369B2, “N-(pyridin-2-yl)pyridine-sulfonamide derivatives and their use in the treatment of disease” (Novartis AG, priority 2016, dated 2021).
Counter-ions that a name gives are not always drawn.

Key:
[1] = target: T1, horseradish peroxidase (HRP) tagged delF508-CFTR (Homo sapiens, UniProt P13569, DEL508-508); experiment: Measurement of delF508-CFTR-HRP surface expression in CFBE41o- cells; type: cell-based; conditions: delF508-CFTR-HRP surface expression, CFBE41o- cells; for Emax: read-out: DelF508-CFTR-HRP Amax %; for EC50: read-out: DelF508-CFTR-HRP EC50;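 on DelF508-CFTR-HRP Amax %: percent efficacy relative to reference corrector lumacaftor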
T1 construct: expressed in transfected cells
T1 sequence (P13569 with tags, fused parts or gaps DEL508-508): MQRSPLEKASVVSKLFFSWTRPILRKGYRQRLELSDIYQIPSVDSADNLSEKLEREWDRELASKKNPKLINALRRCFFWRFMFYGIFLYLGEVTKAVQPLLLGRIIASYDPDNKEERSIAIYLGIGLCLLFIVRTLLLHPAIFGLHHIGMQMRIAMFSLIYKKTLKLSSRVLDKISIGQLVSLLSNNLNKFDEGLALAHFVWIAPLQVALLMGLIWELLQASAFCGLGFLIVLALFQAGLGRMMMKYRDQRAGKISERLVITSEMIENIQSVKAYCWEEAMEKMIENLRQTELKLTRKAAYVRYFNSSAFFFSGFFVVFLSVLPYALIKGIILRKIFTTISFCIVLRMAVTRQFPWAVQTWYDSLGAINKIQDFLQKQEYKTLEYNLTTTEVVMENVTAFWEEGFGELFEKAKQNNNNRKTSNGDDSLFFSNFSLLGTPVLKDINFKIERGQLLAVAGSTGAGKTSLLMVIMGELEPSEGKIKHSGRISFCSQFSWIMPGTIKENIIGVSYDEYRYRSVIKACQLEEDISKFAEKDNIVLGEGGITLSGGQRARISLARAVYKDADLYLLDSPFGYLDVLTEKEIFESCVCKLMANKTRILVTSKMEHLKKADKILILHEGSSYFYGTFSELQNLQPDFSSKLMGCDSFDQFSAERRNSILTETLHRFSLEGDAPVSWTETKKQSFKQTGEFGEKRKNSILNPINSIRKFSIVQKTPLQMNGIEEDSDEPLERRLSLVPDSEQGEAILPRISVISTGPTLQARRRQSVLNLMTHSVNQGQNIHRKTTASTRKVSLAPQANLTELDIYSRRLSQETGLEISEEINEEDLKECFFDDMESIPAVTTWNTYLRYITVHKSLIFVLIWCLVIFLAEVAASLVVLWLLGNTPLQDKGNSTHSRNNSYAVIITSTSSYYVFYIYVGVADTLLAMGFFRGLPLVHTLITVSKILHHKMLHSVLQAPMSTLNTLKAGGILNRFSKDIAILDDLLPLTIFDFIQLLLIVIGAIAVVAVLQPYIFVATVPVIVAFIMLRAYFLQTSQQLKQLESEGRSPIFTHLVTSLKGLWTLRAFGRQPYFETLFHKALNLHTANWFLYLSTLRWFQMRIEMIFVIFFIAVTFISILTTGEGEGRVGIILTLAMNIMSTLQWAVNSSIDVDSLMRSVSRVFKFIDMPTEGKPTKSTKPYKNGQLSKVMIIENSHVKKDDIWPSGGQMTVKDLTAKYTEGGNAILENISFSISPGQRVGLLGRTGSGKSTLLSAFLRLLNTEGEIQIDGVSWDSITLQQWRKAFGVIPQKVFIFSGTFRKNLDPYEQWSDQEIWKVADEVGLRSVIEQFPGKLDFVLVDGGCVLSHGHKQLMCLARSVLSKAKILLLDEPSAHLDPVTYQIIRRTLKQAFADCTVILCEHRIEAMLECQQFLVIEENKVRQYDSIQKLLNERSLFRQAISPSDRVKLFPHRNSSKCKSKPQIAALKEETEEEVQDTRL
Procedure, shortened: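 Surface-trafficked delF508-CFTR detected via extracellular HRP tag, read as luminescence from a membrane-impermeant substrate in CFBE41o- cells. Cells pre-induced 48h with 500 ng/mL doxycycline, then exposed 24h at 37° C to a 10-point, 3-fold dilution series from 10 μM (DMSO ≤0.5%). Triplicate dose-responses fitted logistically for EC50 after per-plate normalization; fold change versus reference compound.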

[2] = target: T2, delF508-CFTR (Homo sapiens, UniProt P13569, DEL508-508); experiment: Measurement of delF508-CFTR functional activity in primary human bronchial epithelial cells (HBECs) using Multi-Transepithelial Clamp Circuit (MTECC-24) assay; type: cell-based; conditions: primary CF HBECs; for MTECC24 CFHBEC- Amax %: test compound added 24h before assay plus potentiator, relative to reference combination (2 μM corrector + 0.5 μM potentiator); for EC50: test compound added 24h before assay, in the presence of potentiator, mean of at least two replicates, read-out: MTECC24 CFHBEC- EC50
T2 construct: functional activity of the CFTR channel (Chloride ion transport) in patient derived primary human bronchial epithelial cells; host or cells: patient-derived primary human bronchial epithelial cells (delF508-CFTR)
T2 sequence (P13569 with tags, fused parts or gaps DEL508-508): as above
Procedure, shortened: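 Compound tested as 10-point, 1-in-3 concentration response (0.1% or 0.2% DMSO), 24 h basolateral pre-incubation, then re-added to both sides. MTECC-24 measured Ieq in ALI-differentiated primary delF508 bronchial cells after amiloride, forskolin activation, potentiator and INH-172 block; data normalized to DMSO baseline, EC50 fitted.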

| Emax [1] [%] | EC50 [1] [nM] | MTECC24 CFHBEC- Amax % [2] [%] | EC50 [2] [nM] | Structure (SMILES) |
| --- | --- | --- | --- | --- |
| 195 | 3480 | 67.1 | 25 | Cc1c(F)cccc1-c1nc(NS(=O)(=O)c2ccnc(N3CCOC[C@H]3C)c2)ccc1Cl [Example 319, (R)—N-(5-chloro-6-(3-fluoro-2-methylphenyl)pyridin-2-yl)-2-(3-methylmorpholino)pyridine-4-sulfonamide] |
| 744 | 1830 | 59.4 | 11 | Cc1cccc(C)c1-c1nc(NS(=O)(=O)c2cccc(N3CCC(C)(C(=O)O)CC3)n2)ccc1Cl [Example 250, 1-(6-(N-(5-chloro-6-(2,6-dimethylphenyl)pyridin-2-yl)sulfamoyl)pyridin-2-yl)-4-methylpiperidine-4-carboxylic Acid] |
| 485 | 3220 | 89.6 | 87.8 | Cc1ccccc1-c1nc(NS(=O)(=O)c2cccc(N3CCN(CCO)CC3)n2)ccc1C(F)(F)F [Example 182, 6-(4-(2-hydroxyethyl)piperazin-1-yl)-N-(6-(o-tolyl)-5-(trifluoromethyl)pyridin-2-yl)pyridine-2-sulfonamide Hydrochloride] |
| 233 | 3750 | 60.7 | 207 | Cc1c(C#N)cccc1-c1nc(NS(=O)(=O)c2cccc(N3CC(C)(O)C3)n2)ccc1C(F)(F)F [Example 308, N-(6-(3-cyano-2-methylphenyl)-5-(trifluoromethyl)pyridin-2-yl)-6-(3-hydroxy-3-methylazetidin-1-yl)pyridine-2-sulfonamide] |
| 481 | 2870 | 54.4 | 8.3 | Cc1c(F)cccc1-c1nc(NS(=O)(=O)c2cccc(N3CCC(C)(C(=O)O)CC3)n2)ccc1C(F)(F)F [Example 263, 1-(6-(N-(6-(3-fluoro-2-methylphenyl)-5-(trifluoromethyl)pyridin-2-yl)sulfamoyl)pyridin-2-yl)-4-methylpiperidine-4-carboxylic Acid] |
